Source: patent US12612644B2, “Scalable method for recombinant AAV production” (REGENXBIO Inc., priority 2018, dated 2026)

Assays:
[1] = tested on: HEK293 cells expressing AAV8 particles; test: Large scale (50 liter) rAAV production using NaCl enhancer (Example 3); assay type: cell-based, human; conditions: 50 liter culture; NaCl increased by 60 mM 24 hours post transfection
Description: The effect of NaCl on rAAV yield was tested in 50 liter cultures of HEK293 cells expressing AAV8 particles encapsidating a transgene. HEK suspension cultures were grown using standard processes. Cells were diluted to ˜4×10e6 viable cells. The medium used included 100 mM NaCl. Cells were transfected 24 hours post dilution with a mixture of polyethylenimine and 3 plasmids encoding adeno-virus helper functions, transgene and AAV […]. 24 hours post transfection, sufficient NaCl was added to increase the final NaCl concentration by 60 mM. (i.e., the final NaCl concentration was ˜160 mM). Supernatant was harvested on day 4 post transfection. The processes yielded 1×10e+11 genome copy (GC)/ml and 9×10e+10. This is ˜2-fold higher than the yield of the same process without the increase in NaCl concentration following transfection.

[2] = tested on: HEK293 cells expressing rAAV9 particles; test: Effect of NaCl and/or sodium propionate on rAAV9 yield, microscale bioreactors (Example 5); assay type: cell-based, human; conditions: effects of other conditions averaged
Description: The effect of sodium chloride and sodium propionate (NaPr) (ThermoFisher Scientific) on rAAV yield in a suspension culture of HEK293 cells expressing rAAV9 particles encapsidating a transgene. HEK293 cells were seeded at 1×10e6 viable cell/ml density in advanced microscale bioreactors. The medium comprised 100 mM NaCl. At 48 hrs ECD (Elapsed Culture Duration), the cells were transfected with a mixture of polyethylenimine and 3 plasmids encoding adeno-virus helper functions, transgene and AAV 2/9 Rep/Cap. 4, 20, or 36 hours after transfection, NaCl, NaPr, anti-clump, EFC+, and/or Na valproate was added to the cultures. Conditions tested were 0, 30 mM and 60 mM NaCl, 0, 2 mM and 4 mM NaPr. Multiple conditions were tested using a Design of Experiment approach. The supernatant of the cultures was harvested at […], i.e., 5 days post-transfection. rAAV yields were obtained. […] Resulting titer improvement by adding NaCl and/or NaPr is shown in FIG. 3 where the effects of other tested conditions are averaged. […] The observed ˜2-fold increase is higher than what would be expected if the effect of NaPr and increased NaCl were additive.

CHO cells = conditions: cited from earlier work
[3] = tested on: recombinant IgG production; conditions: alone; small culture conditions less than 50 L; cited from earlier work

Structure (SMILES): [Cl-].[Na+] [NaCl, sodium chloride]
- yield relative to the same process without the increase in NaCl concentration [1]: ~2 fold
- increase in the titer ([2]; increased NaCl in the absence of sodium propionate): ~1.2 fold

Structure (SMILES): CCCC(=O)O [butyric acid]
- cell growth (CHO cells): inhibited cell growth
- production of recombinant B-domain deleted factor VIII (CHO cells): enhanced production

Structure (SMILES): CCC(=O)O [propionic acid]
- production of recombinant B-domain deleted factor VIII (CHO cells): enhanced production

Structure (SMILES): CCC(=O)[O-].[Na+] [sodium propionate]
- increase in the titer ([2]; 2 mM sodium propionate in the absence of increased NaCl): ~1.5 fold
- effect on recombinant IgG production [3]: no strong effect alone
